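Results reflect a 48-hour exposure of cells in 96-well plates to compound at five concentrations. Here, GI50 denotes the concentration required for 50% inhibition of growth. TGI: total growth inhibition.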
Assays:
Experiment in all cases: DTP human tumour cell line panel, 48 h; in the data active means GI50 below about 0.43 µM; inactive means the rest
PC-3 prostate = tested on: PC-3 prostate
OVCAR-8 ovarian = tested on: OVCAR-8 ovarian
HOP-92 NSCLC = tested on: HOP-92 NSCLC
EKVX NSCLC = tested on: EKVX NSCLC
HS 578T breast = tested on: HS 578T breast
MALME-3M melanoma = tested on: MALME-3M melanoma
HT29 colon = tested on: HT29 colon
SF-539 CNS = tested on: SF-539 CNS
HCT-116 colon = tested on: HCT-116 colon
HCC-2998 colon = tested on: HCC-2998 colon
TK-10 renal = tested on: TK-10 renal
MCF7 breast = tested on: MCF7 breast
SN12C renal = tested on: SN12C renal
786-0 renal = tested on: 786-0 renal
SNB-19 CNS = tested on: SNB-19 CNS
MDA-MB-435 = tested on: MDA-MB-435
SK-MEL-2 melanoma = tested on: SK-MEL-2 melanoma
MOLT-4 leukemia = tested on: MOLT-4 leukemia
IGROV1 ovarian = tested on: IGROV1 ovarian
UO-31 renal = tested on: UO-31 renal
K-562 leukemia = tested on: K-562 leukemia
U251 CNS = tested on: U251 CNS
BT-549 breast = tested on: BT-549 breast
COLO 205 colon = tested on: COLO 205 colon
NCI-H522 lung = tested on: NCI-H522 lung
A549 NSCLC = tested on: A549 NSCLC
ACHN renal = tested on: ACHN renal
OVCAR-4 ovarian = tested on: OVCAR-4 ovarian
A498 renal = tested on: A498 renal
RXF 393 renal = tested on: RXF 393 renal
HOP-62 NSCLC = tested on: HOP-62 NSCLC
UACC-257 melanoma = tested on: UACC-257 melanoma
NCI-H23 lung = tested on: NCI-H23 lung
CCRF-CEM leukemia = tested on: CCRF-CEM leukemia
M14 melanoma = tested on: M14 melanoma
SK-OV-3 ovarian = tested on: SK-OV-3 ovarian
LOX IMVI melanoma = tested on: LOX IMVI melanoma
T-47D breast = tested on: T-47D breast
DU-145 prostate = tested on: DU-145 prostate
SK-MEL-28 melanoma = tested on: SK-MEL-28 melanoma
OVCAR-5 ovarian = tested on: OVCAR-5 ovarian
KM12 colon = tested on: KM12 colon
SF-268 CNS = tested on: SF-268 CNS
UACC-62 melanoma = tested on: UACC-62 melanoma
SNB-75 CNS = tested on: SNB-75 CNS
SW-620 colon = tested on: SW-620 colon
NCI-H460 lung = tested on: NCI-H460 lung
SR leukemia = tested on: SR leukemia
MDA-MB-231 breast = tested on: MDA-MB-231 breast
NCI-H226 lung = tested on: NCI-H226 lung
SF-295 CNS = tested on: SF-295 CNS
HCT-15 colon = tested on: HCT-15 colon
CAKI-1 renal = tested on: CAKI-1 renal
HL-60(TB) leukemia = tested on: HL-60(TB) leukemia
RPMI-8226 leukemia = tested on: RPMI-8226 leukemia
SK-MEL-5 melanoma = tested on: SK-MEL-5 melanoma
OVCAR-3 ovarian = tested on: OVCAR-3 ovarian
NCI/ADR-RES ovarian = tested on: NCI/ADR-RES ovarian

COc1ccc(C(=O)c2cc(OC)c3c(c2)OCO3)cc1O
60.3 nM: TGI (MDA-MB-435)
> 31500 nM: TGI (HCC-2998 colon)
active: GI50 (OVCAR-8 ovarian) 387 nM | GI50 (HS 578T breast) 190 nM | GI50 (SF-539 CNS) 199 nM | GI50 (HCT-116 colon) 345 nM | GI50 (MCF7 breast) 332 nM | GI50 (SNB-19 CNS) 377 nM | GI50 (MDA-MB-435) 22.1 nM | GI50 (SK-MEL-2 melanoma) 346 nM | GI50 (K-562 leukemia) 45.9 nM | GI50 (U251 CNS) 315 nM | GI50 (NCI-H522 lung) 25.9 nM | GI50 (RXF 393 renal) 215 nM | GI50 (HOP-62 NSCLC) 383 nM | GI50 (NCI-H23 lung) 248 nM | GI50 (CCRF-CEM leukemia) 298 nM | GI50 (M14 melanoma) 47.3 nM | GI50 (SK-OV-3 ovarian) 200 nM | GI50 (LOX IMVI melanoma) 180 nM | GI50 (DU-145 prostate) 340 nM | GI50 (KM12 colon) 50.5 nM | GI50 (SF-268 CNS) 287 nM | GI50 (SNB-75 CNS) 166 nM | GI50 (SW-620 colon) 57.7 nM | GI50 (NCI-H460 lung) 299 nM | GI50 (SR leukemia) 42.3 nM | GI50 (HCT-15 colon) 112 nM | GI50 (HL-60(TB) leukemia) 119 nM | GI50 (RPMI-8226 leukemia) 309 nM | GI50 (SK-MEL-5 melanoma) 261 nM | GI50 (OVCAR-3 ovarian) 213 nM | GI50 (NCI/ADR-RES ovarian) 43.6 nM
> 44000 nM: TGI (RPMI-8226 leukemia)
21000 nM: TGI (COLO 205 colon)
7500 nM: TGI (A498 renal)
> 57200 nM: TGI (HT29 colon)
9450 nM: TGI (NCI-H460 lung)
> 54200 nM: TGI (HOP-62 NSCLC)
34400 nM: TGI (SK-MEL-2 melanoma)
1580 nM: TGI (SK-OV-3 ovarian)
64000 nM: TGI (MCF7 breast)
3070 nM: TGI (SF-539 CNS)
34600 nM: TGI (SNB-75 CNS)
674 nM: TGI (RXF 393 renal)
> 100000 nM: TGI (PC-3 prostate) | TGI (OVCAR-8 ovarian) | TGI (EKVX NSCLC) | TGI (MALME-3M melanoma) | TGI (SN12C renal) | TGI (786-0 renal) | TGI (SNB-19 CNS) | TGI (MOLT-4 leukemia) | TGI (IGROV1 ovarian) | TGI (UO-31 renal) | TGI (K-562 leukemia) | TGI (U251 CNS) | TGI (BT-549 breast) | TGI (A549 NSCLC) | TGI (ACHN renal) | TGI (OVCAR-4 ovarian) | TGI (CCRF-CEM leukemia) | TGI (LOX IMVI melanoma) | TGI (T-47D breast) | TGI (SK-MEL-28 melanoma) | TGI (OVCAR-5 ovarian) | TGI (UACC-62 melanoma) | TGI (SW-620 colon) | TGI (SR leukemia) | TGI (MDA-MB-231 breast) | TGI (SF-295 CNS) | TGI (HCT-15 colon) | TGI (CAKI-1 renal)
105 nM: TGI (NCI-H522 lung)
> 32100 nM: TGI (HS 578T breast)
2240 nM: TGI (HL-60(TB) leukemia)
8810 nM: TGI (NCI-H226 lung)
> 79500 nM: TGI (UACC-257 melanoma)
52700 nM: TGI (HOP-92 NSCLC)
inactive: GI50 (PC-3 prostate) 908 nM | GI50 (HOP-92 NSCLC) 824 nM | GI50 (EKVX NSCLC) 19800 nM | GI50 (MALME-3M melanoma) 6720 nM | GI50 (HT29 colon) 3180 nM | GI50 (HCC-2998 colon) 1720 nM | GI50 (TK-10 renal) 5700 nM | GI50 (SN12C renal) 1090 nM | GI50 (786-0 renal) 933 nM | GI50 (MOLT-4 leukemia) 617 nM | GI50 (IGROV1 ovarian) 1180 nM | GI50 (UO-31 renal) 3640 nM | GI50 (BT-549 breast) 3060 nM | GI50 (COLO 205 colon) 7510 nM | GI50 (A549 NSCLC) 614 nM | GI50 (ACHN renal) 1570 nM | GI50 (OVCAR-4 ovarian) 1720 nM | GI50 (A498 renal) 2340 nM | GI50 (UACC-257 melanoma) 1130 nM | GI50 (T-47D breast) 883 nM | GI50 (SK-MEL-28 melanoma) 457 nM | GI50 (OVCAR-5 ovarian) 4490 nM | GI50 (UACC-62 melanoma) 946 nM | GI50 (MDA-MB-231 breast) 572 nM | GI50 (NCI-H226 lung) 2490 nM | GI50 (SF-295 CNS) 832 nM | GI50 (CAKI-1 renal) 1410 nM
3520 nM: TGI (DU-145 prostate)
481 nM: TGI (OVCAR-3 ovarian)
16100 nM: TGI (SF-268 CNS)
99400 nM: TGI (TK-10 renal)
9190 nM: TGI (HCT-116 colon)
2640 nM: TGI (KM12 colon)
5220 nM: TGI (M14 melanoma)
> 24800 nM: TGI (NCI-H23 lung)
1710 nM: TGI (SK-MEL-5 melanoma)

— PubChem BioAssay (NCI)
